Reference: PubChem BioAssay (NCI)
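Test compounds were applied to cells in 96-well plates for 48 hours at 5 doses. Definition used: TGI = concentration required for complete inhibition of growth.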 Where a SMILES comes first, the peptide text is derived from it. The star is where a group is joined. Boc = CC(C)(C)OC(=O)*; OBn = c1ccc(CO*)cc1

Columns and labels:
Experiment in all cases: NCI-60 cell line screen, 48 h
[1] = system: SK-MEL-2 melanoma
[2] = system: MCF7 breast
[3] = system: SK-MEL-5 melanoma
[4] = system: KM12 colon
[5] = system: RPMI-8226 leukemia
[6] = system: HOP-62 NSCLC
[7] = system: OVCAR-8 ovarian
[8] = system: UACC-257 melanoma
[9] = system: SR leukemia

Compound | TGI [1] | TGI [2] | TGI [3] | TGI [4] | TGI [5] | TGI [6] | TGI [7] | TGI [8] | TGI [9]
CCc1ccc2[nH]c(O)c(-c3[nH]c4ccccc4c3N=O)c2c1 | 15.3 µM | 6.05 µM | 13.6 µM | 4.51 µM | > 100 µM | 27.2 µM | 32.2 µM | 28.5 µM | > 100 µM
Nc1ccccc1N/C=C\C(=O)C(Cl)(Cl)Cl | 53.7 µM | 30.7 µM | > 100 µM | 29.4 µM | 38 µM | 37.2 µM | > 100 µM | 64.2 µM | –
Cc1ccc(N2CCc3c(C)c(C#N)c4nc5ccccc5n4c32)cc1 | > 100 µM | > 100 µM | > 100 µM | – | – | > 100 µM | > 100 µM | > 100 µM | > 100 µM
CC(C)(C)C1(COC(=O)c2ccc(N)cc2)COC1 | > 100 µM | > 100 µM | > 100 µM | > 100 µM | > 100 µM | > 100 µM | > 100 µM | > 100 µM | > 100 µM
CCCCc1ccc(Nc2ncc3[nH]cnc3n2)cc1 | 53.3 µM | > 100 µM | 31.1 µM | 45 µM | 71.2 µM | 37.2 µM | 36.3 µM | 59 µM | –
Cc1cn(CC2=NCC(C)(C)N2)c(=O)[nH]c1=O | > 100 µM | > 100 µM | > 100 µM | – | > 100 µM | > 100 µM | > 100 µM | > 100 µM | > 100 µM
C=C(CC[C@@H](C(=O)O)[C@H]1[C@H](O)C[C@@]2(C)C3=CC[C@@H](C(=C)C)[C@](C)(CCC(=O)O)C3=CC[C@]12C)C(C)C | 34.3 µM | 32.6 µM | 36.3 µM | 32.6 µM | – | – | 39.9 µM | 30.6 µM | –
CCCNC(C#N)c1ccc(C(C#N)NCCC)cc1 (stereo unspecified) | > 100 µM | – | > 100 µM | > 100 µM | – | – | > 100 µM | > 100 µM | –
COc1ccc2c(c1)N=C1CSC(c3ccccc3Cl)N1C2 (stereo unspecified) | 30.3 µM | 53.5 µM | 31.4 µM | 18.4 µM | 35.3 µM | 34.5 µM | 42.4 µM | 32.7 µM | 16 µM
C1CCC(OC2CSC2)OC1 (stereo unspecified) | – | > 100 µM | > 100 µM | > 100 µM | – | – | > 100 µM | > 100 µM | > 100 µM
O=c1c2cc(I)ccc2nc(Sc2ncccc2[N+](=O)[O-])n1Cc1ccccc1 | 30.8 µM | > 100 µM | 91.6 µM | > 100 µM | > 100 µM | > 100 µM | > 100 µM | > 100 µM | > 100 µM
[N-]=[N+]=CC(=O)OCC1SCCCS1 | > 100 µM | > 100 µM | > 100 µM | > 100 µM | > 100 µM | > 100 µM | – | > 100 µM | > 100 µM
CC(NC(=O)C(NC(=O)OC(C)(C)C)C(C)C)C(=O)N1CCCC1C(=O)NCC(=O)NC(C(=O)NCC(=O)OCc1ccccc1)C(C)C (stereo unspecified) (Boc-VAPGVG-OBn; configuration not given here) | > 100 µM | > 100 µM | – | – | > 100 µM | > 100 µM | > 100 µM | > 100 µM | > 100 µM
Cc1[nH]c2ccccc2c1C=Nc1ccc(N=Cc2c(C)[nH]c3ccccc23)cc1 | 57.2 µM | 30.1 µM | 93.8 µM | 32.3 µM | 45.3 µM | > 100 µM | > 100 µM | > 100 µM | 46.9 µM
O=c1[nH]nc(-c2ccccc2)n1/N=C/c1c(O)ccc2ccccc12 | > 100 µM | > 100 µM | > 100 µM | > 100 µM | > 100 µM | > 100 µM | > 100 µM | > 100 µM | > 100 µM
COC(=O)c1cc(C#N)[nH]c1-c1ccc(C)s1 | – | – | – | > 100 µM | > 100 µM | > 100 µM | > 100 µM | > 100 µM | > 100 µM
C=CCSC1=N/C(=C\c2ccccc2)C(=O)N1CC=C | 97.6 µM | > 100 µM | 37.3 µM | > 100 µM | > 62.3 µM | > 100 µM | > 100 µM | > 82.5 µM | > 61.6 µM
O=c1c(C=Nc2ccc([N+](=O)[O-])cc2)c(O)n(-c2ccccc2)c(=O)n1-c1ccccc1 | > 100 µM | > 100 µM | > 100 µM | > 100 µM | > 100 µM | > 100 µM | > 100 µM | > 100 µM | > 100 µM
O=C1Cc2c([nH]c3ccc(Br)cc23)-c2ccccc2N1 | > 100 µM | – | > 100 µM | > 100 µM | > 100 µM | > 100 µM | > 100 µM | > 100 µM | > 100 µM
Cc1nc2ccc(S(=O)(=O)O)cc2c(=O)n1-c1ccc(C(=O)NN2C(=O)C(Cl)C2c2ccccc2O)cc1 (stereo unspecified) | > 100 µM | > 100 µM | > 100 µM | > 100 µM | > 100 µM | > 100 µM | > 100 µM | > 100 µM | > 100 µM
CN(C)CCNC(=O)c1cccc2nc3c(nc12)-c1ccccc1C3=O | 32.4 µM | 24.3 µM | 25.1 µM | 33.2 µM | 33.6 µM | 16.6 µM | 62.7 µM | 34.6 µM | > 21.5 µM
COc1cccc(Cc2c3cc(OC)ccc3cc[n+]2C)c1 | > 100 µM | – | 65.4 µM | > 100 µM | > 100 µM | > 100 µM | > 100 µM | 51.6 µM | –
N#Cc1c(N2CCCC2)ncn(Cc2ccccc2)c1=O | > 100 µM | – | > 100 µM | > 100 µM | > 100 µM | > 100 µM | > 100 µM | > 100 µM | > 100 µM
CC[C@H](C)[C@H]1NC(=O)[C@@H](NC(=O)[C@@H](CC(C)C)N(C)CC2CCCN2C(=O)C(C)=O)[C@@H](C)OC(=O)[C@H](Cc2ccc(OC)cc2)N(C)C(=O)C2CCCN2C(=O)[C@H](CC(C)C)NC(=O)[C@@H](C)C(=O)[C@H](C(C)C)OC(=O)C[C@@H]1O (stereo partly specified) | 0.00703 µM | 0.00747 µM | 0.00843 µM | 0.0105 µM | 0.00697 µM | 0.00713 µM | 0.0474 µM | 0.0128 µM | 0.00471 µM
